Measurements as given in ChEMBL document CHEMBL1136664, “N-Phenyl-N-purin-6-yl ureas: the design and synthesis of p38alpha MAP kinase inhibitors” (Bioorg Med Chem Lett, 2003).
Values after ≈ are worked out from the molar mass of the structure shown.

How the values were obtained:
[1] = biological target: Mitogen-activated protein kinase 14 (Homo sapiens, UniProt Q16539); assay: Inhibition of human MAP p38-alpha kinase in vitro.
[2] = Aqueous solubility at pH 7.4; assay type: physicochemical

Sequence of Mitogen-activated protein kinase 14 (Q16539 whole entry): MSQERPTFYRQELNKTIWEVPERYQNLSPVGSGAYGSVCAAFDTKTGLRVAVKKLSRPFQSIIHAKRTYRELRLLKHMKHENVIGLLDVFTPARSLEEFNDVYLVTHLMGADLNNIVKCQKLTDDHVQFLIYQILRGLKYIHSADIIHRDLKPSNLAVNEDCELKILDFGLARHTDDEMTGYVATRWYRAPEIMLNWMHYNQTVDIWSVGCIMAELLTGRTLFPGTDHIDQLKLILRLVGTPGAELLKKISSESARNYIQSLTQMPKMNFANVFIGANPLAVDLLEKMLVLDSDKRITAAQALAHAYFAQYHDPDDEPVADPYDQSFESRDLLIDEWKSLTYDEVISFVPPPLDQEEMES

| IC50 [1] [nM] | solubility [2] [µM] | SMILES |
| --- | --- | --- |
| 550 | – | Cn1cnc2c(N(C(N)=O)c3c(F)cccc3F)nc(-c3cccc(Cl)c3)nc21 |
| 128 | – | Cc1cc(F)ccc1-c1nc(N(C(N)=O)c2c(F)cccc2F)c2ncn(C)c2n1 |
| 350 | – | Cc1cccc(-c2nc(N(C(N)=O)c3c(F)cccc3F)c3ncn(C)c3n2)c1 |
| 36 | 1 (≈ 0.398 µg/mL) | Cn1cnc2c(N(C(N)=O)c3c(F)cccc3F)nc(-c3ccccc3F)nc21 |
| 510 | – | Cn1cnc2c(N(C(N)=O)c3c(F)cccc3F)nc(-c3ccccc3)nc21 |
| 30 | – | Cn1cnc2c(N(C(N)=O)c3c(F)cccc3F)nc(-c3ccccc3Cl)nc21 |
| 5000 | – | Cn1cnc2c(N(C(N)=O)c3c(F)cccc3F)nc(-c3cccc(F)c3)nc21 |
| 140 | – | Cc1ccccc1-c1nc(N(C(N)=O)c2c(F)cccc2F)c2ncn(C)c2n1 |
| 26 | – | Cn1cnc2c(N(C(N)=O)c3c(F)cccc3F)nc(-c3ccc(F)cc3F)nc21 |
| 2100 | – | Cc1ccc(-c2nc(N(C(N)=O)c3c(F)cccc3F)c3ncn(C)c3n2)cc1 |

More lines, now with the values behind:

| SMILES | IC50 [1] [nM] | solubility [2] [µM] |
| --- | --- | --- |
| Cn1cnc2c(N(C(N)=O)c3c(F)cccc3F)nc(-c3cc(F)cc(F)c3)nc21 | > 16700 | – |
| NC(=O)N(c1c(F)cccc1F)c1nc(-c2ccccc2F)nc2c1ncn2Cc1ccccc1 | 16 | – |
| Cc1cc(F)ccc1-c1nc(N(C(N)=O)c2ccccc2)c2ncn(C)c2n1 | > 16700 | – |
| CN(C)CCn1cnc2c(N(C(N)=O)c3c(F)cccc3F)nc(-c3ccccc3F)nc21 | 82 | > 20 |
| Cc1cc(F)ccc1-c1nc(N(C(N)=O)c2ccccc2Cl)c2ncn(C)c2n1 | 123 | – |
| Cn1cnc2c(N(C(N)=O)c3c(F)cccc3F)nc(-c3ccc(F)cc3)nc21 | 1000 | – |
| Cc1cc(F)ccc1-c1nc(N(C(N)=O)c2ccc(F)cc2)c2ncn(C)c2n1 | 1400 | – |
| Cc1cc(F)ccc1-c1nc(N(C(N)=O)c2c(F)cc(F)cc2F)c2ncn(C)c2n1 | 163 | – |
| Cc1cc(F)ccc1-c1nc(N(C(N)=O)c2ccc(Cl)cc2)c2ncn(C)c2n1 | 9800 | – |
| COc1ccccc1N(C(N)=O)c1nc(-c2ccc(F)cc2C)nc2c1ncn2C | > 16700 | – |
